Source: ChEMBL document CHEMBL3885881, “DrugMatrix”

Organism: Rattus norvegicus
Experiment: DrugMatrix - Regimen: Daily Repeat
Format: toxicity, organism-based, Sprague-Dawley
Parameters: regimen Daily Repeat, gender Male, age 6-8 weeks
Conditions: in vivo, po, route oral GAVAGE, […]; for ABSOLUTE BASOPHIL / ABSOLUTE EOSINOPHIL / ABSOLUTE LYMPHOCYTE / ABSOLUTE MONOCYTE / ABSOLUTE SEGMENTED NEUTROPHIL / BASOPHIL / EOSINOPHIL / ERYTHROCYTE COUNT / HEMATOCRIT / HEMOGLOBIN / LEUKOCYTE COUNT / LYMPHOCYTE / MEAN CORPUSCULAR HEMOGLOBIN / MEAN CORPUSCULAR HEMOGLOBIN CONCENTRATION / MEAN CORPUSCULAR VOLUME / MONOCYTE / NEUTROPHIL / NUCLEATED RED BLOOD CELLS / PLATELET COUNT: tissue Blood; for ALANINE AMINOTRANSFERASE / ALKALINE PHOSPHATASE / ASPARTATE AMINOTRANSFERASE / BLOOD UREA NITROGEN / CARBON DIOXIDE / CHLORIDE / CHOLESTEROL / CREATINE PHOSPHOKINASE / CREATININE / GLUCOSE / LACTATE DEHYDROGENASE / LIPASE / PHOSPHORUS / POTASSIUM / SODIUM / TOTAL BILIRUBIN / TOTAL PROTEIN / URIC ACID: tissue Plasma
[1] = 20.4 mg/kg, 72 h, dose level High, time 3 day
[2] = 20.4 mg/kg, 120 h, dose level High, time 5 day
[3] = 72 h, dose 2.7 mg/Kg, dose level Low, time 3 day
[4] = 120 h, dose 2.7 mg/Kg, dose level Low, time 5 day

CC(C(=O)O)c1cccc(C(=O)c2ccccc2)c1 (stereo not drawn) [KETOPROFEN]
ABSOLUTE BASOPHIL [1]: 0 CELLS/uL
ABSOLUTE EOSINOPHIL [1]: 0 CELLS/uL
ABSOLUTE LYMPHOCYTE [1]: 7267.67 CELLS/uL
ABSOLUTE MONOCYTE [1]: 314.33 CELLS/uL
ABSOLUTE SEGMENTED NEUTROPHIL [1]: 1618 CELLS/uL
BASOPHIL [1]: 0%
EOSINOPHIL [1]: 0%
ERYTHROCYTE COUNT [1]: 4.75 x10E6/uL
HEMATOCRIT [1]: 28.6%
HEMOGLOBIN [1]: 11.67 G/DL
LEUKOCYTE COUNT [1]: 9.2 x10E3/uL
LYMPHOCYTE [1]: 76.67%
MEAN CORPUSCULAR HEMOGLOBIN [1]: 24.67 pg
MEAN CORPUSCULAR HEMOGLOBIN CONCENTRATION [1]: 40.8 G/DL
MEAN CORPUSCULAR VOLUME [1]: 60.43 fL
MONOCYTE [1]: 3.33%
NEUTROPHIL [1]: 20%
NUCLEATED RED BLOOD CELLS [1]: 0.67 /100WBC
PLATELET COUNT [1]: 1067.67 x10E3/uL
ALANINE AMINOTRANSFERASE [1]: 31.67 u/L
ALKALINE PHOSPHATASE [1]: 297.33 u/L
ASPARTATE AMINOTRANSFERASE [1]: 95 u/L
BLOOD UREA NITROGEN [1]: 15.33 mg/dL
CARBON DIOXIDE [1]: 25.67 mmol/L
CHLORIDE [1]: 101.67 MEQ/L
CHOLESTEROL [1]: 70.33 mg/dL
CREATINE PHOSPHOKINASE [1]: 362.33 u/L
CREATININE [1]: 0.15 mg/dL
GLUCOSE [1]: 138.67 mg/dL
LACTATE DEHYDROGENASE [1]: 114 u/L
LIPASE [1]: 9.67 u/L
PHOSPHORUS [1]: 13.07 mg/dL
POTASSIUM [1]: 6.63 MEQ/L
SODIUM [1]: 141.23 MEQ/L
TOTAL BILIRUBIN [1]: 0.1 mg/dL
TOTAL PROTEIN [1]: 4.57 G/DL
URIC ACID [1]: 2.1 mg/dL
ABSOLUTE BASOPHIL [2]: 0 CELLS/uL
ABSOLUTE EOSINOPHIL [2]: 0 CELLS/uL
ABSOLUTE LYMPHOCYTE [2]: 10025.5 CELLS/uL
ABSOLUTE MONOCYTE [2]: 600.5 CELLS/uL
ABSOLUTE SEGMENTED NEUTROPHIL [2]: 1824 CELLS/uL
BASOPHIL [2]: 0%
EOSINOPHIL [2]: 0%
ERYTHROCYTE COUNT [2]: 4.91 x10E6/uL
HEMATOCRIT [2]: 29.7%
HEMOGLOBIN [2]: 12.2 G/DL
LEUKOCYTE COUNT [2]: 12.45 x10E3/uL
LYMPHOCYTE [2]: 76%
MEAN CORPUSCULAR HEMOGLOBIN [2]: 25 pg
MEAN CORPUSCULAR HEMOGLOBIN CONCENTRATION [2]: 41.05 G/DL
MEAN CORPUSCULAR VOLUME [2]: 60.85 fL
MONOCYTE [2]: 4.5%
NEUTROPHIL [2]: 19.5%
NUCLEATED RED BLOOD CELLS [2]: 1 /100WBC
PLATELET COUNT [2]: 1944 x10E3/uL
ALANINE AMINOTRANSFERASE [2]: 58 u/L
ALKALINE PHOSPHATASE [2]: 430 u/L
ASPARTATE AMINOTRANSFERASE [2]: 128 u/L
BLOOD UREA NITROGEN [2]: 17 mg/dL
CARBON DIOXIDE [2]: 21 mmol/L
CHLORIDE [2]: 99.5 MEQ/L
CHOLESTEROL [2]: 61.5 mg/dL
CREATINE PHOSPHOKINASE [2]: 682 u/L
CREATININE [2]: 0.13 mg/dL
GLUCOSE [2]: 127.5 mg/dL
LACTATE DEHYDROGENASE [2]: 391.5 u/L
LIPASE [2]: 20.5 u/L
PHOSPHORUS [2]: 14.15 mg/dL
POTASSIUM [2]: 8.29 MEQ/L
SODIUM [2]: 138.9 MEQ/L
TOTAL BILIRUBIN [2]: 0.15 mg/dL
TOTAL PROTEIN [2]: 5.05 G/DL
URIC ACID [2]: 3.2 mg/dL
ABSOLUTE BASOPHIL [3]: 0 CELLS/uL
ABSOLUTE EOSINOPHIL [3]: 0 CELLS/uL
ABSOLUTE LYMPHOCYTE [3]: 15950 CELLS/uL
ABSOLUTE MONOCYTE [3]: 68.67 CELLS/uL
ABSOLUTE SEGMENTED NEUTROPHIL [3]: 1814.67 CELLS/uL
BASOPHIL [3]: 0%
EOSINOPHIL [3]: 0%
ERYTHROCYTE COUNT [3]: 5.46 x10E6/uL
HEMATOCRIT [3]: 34.7%
HEMOGLOBIN [3]: 13.87 G/DL
LEUKOCYTE COUNT [3]: 17.83 x10E3/uL
LYMPHOCYTE [3]: 89.67%
MEAN CORPUSCULAR HEMOGLOBIN [3]: 25.4 pg
MEAN CORPUSCULAR HEMOGLOBIN CONCENTRATION [3]: 39.97 G/DL
MEAN CORPUSCULAR VOLUME [3]: 63.5 fL
MONOCYTE [3]: 0.33%
NEUTROPHIL [3]: 10%
NUCLEATED RED BLOOD CELLS [3]: 0.67 /100WBC
PLATELET COUNT [3]: 1051 x10E3/uL
ALANINE AMINOTRANSFERASE [3]: 83.33 u/L
ALKALINE PHOSPHATASE [3]: 375.67 u/L
ASPARTATE AMINOTRANSFERASE [3]: 100.33 u/L
BLOOD UREA NITROGEN [3]: 10.33 mg/dL
CARBON DIOXIDE [3]: 28.67 mmol/L
CHLORIDE [3]: 99.67 MEQ/L
CHOLESTEROL [3]: 74 mg/dL
CREATINE PHOSPHOKINASE [3]: 203.67 u/L
CREATININE [3]: 0.12 mg/dL
GLUCOSE [3]: 169 mg/dL
LACTATE DEHYDROGENASE [3]: 131.33 u/L
LIPASE [3]: 12 u/L
PHOSPHORUS [3]: 11.9 mg/dL
POTASSIUM [3]: 6.6 MEQ/L
SODIUM [3]: 141.63 MEQ/L
TOTAL BILIRUBIN [3]: 0.2 mg/dL
TOTAL PROTEIN [3]: 5.5 G/DL
URIC ACID [3]: 1.3 mg/dL
ABSOLUTE BASOPHIL [4]: 0 CELLS/uL
ABSOLUTE EOSINOPHIL [4]: 0 CELLS/uL
ABSOLUTE LYMPHOCYTE [4]: 13468.33 CELLS/uL
ABSOLUTE MONOCYTE [4]: 227.67 CELLS/uL
ABSOLUTE SEGMENTED NEUTROPHIL [4]: 2570.67 CELLS/uL
BASOPHIL [4]: 0%
EOSINOPHIL [4]: 0%
ERYTHROCYTE COUNT [4]: 5.73 x10E6/uL
HEMATOCRIT [4]: 35.13%
HEMOGLOBIN [4]: 14.03 G/DL
LEUKOCYTE COUNT [4]: 16.27 x10E3/uL
LYMPHOCYTE [4]: 83%
MEAN CORPUSCULAR HEMOGLOBIN [4]: 24.5 pg
MEAN CORPUSCULAR HEMOGLOBIN CONCENTRATION [4]: 39.97 G/DL
MEAN CORPUSCULAR VOLUME [4]: 61.33 fL
MONOCYTE [4]: 1.33%
NEUTROPHIL [4]: 15.67%
NUCLEATED RED BLOOD CELLS [4]: 0 /100WBC
PLATELET COUNT [4]: 1235.67 x10E3/uL
ALANINE AMINOTRANSFERASE [4]: 64.67 u/L
ALKALINE PHOSPHATASE [4]: 363.67 u/L
ASPARTATE AMINOTRANSFERASE [4]: 74 u/L
BLOOD UREA NITROGEN [4]: 13.67 mg/dL
CARBON DIOXIDE [4]: 31.67 mmol/L
CHLORIDE [4]: 100.67 MEQ/L
CHOLESTEROL [4]: 64.33 mg/dL
CREATINE PHOSPHOKINASE [4]: 125.67 u/L
CREATININE [4]: 0.17 mg/dL
GLUCOSE [4]: 146.67 mg/dL
LACTATE DEHYDROGENASE [4]: 78 u/L
LIPASE [4]: 11.67 u/L
PHOSPHORUS [4]: 9.8 mg/dL
POTASSIUM [4]: 6.54 MEQ/L
SODIUM [4]: 143.77 MEQ/L
TOTAL BILIRUBIN [4]: 0.13 mg/dL
TOTAL PROTEIN [4]: 5.8 G/DL
URIC ACID [4]: 1.17 mg/dL
